Tests used:
Assay type in all cases: in vivo
[1] = tested on: barnyardgrass (Echinochloa crus-galli); experiment: Test C greenhouse herbicide test, pre- and postemergence
Summary of the method: (§1)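 Visual ratings on a 0 to 100 scale (0 = no effect, 100 = complete control) versus untreated controls, scored 13–15 d after treatment. Soil-applied preemergence to seeded loam/sand; foliar postemergence to 1- to 4-leaf plants (2–18 cm) in peat-vermiculite mix; compounds formulated in solvent plus surfactant.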

[2] = tested on: blackgrass (Alopecurus myosuroides); experiment: as above
Summary of the method: as §1

corn (Zea mays) = experiment: as above
Summary of the method: as §1

[3] = tested on: crabgrass, large (large crabgrass, Digitaria sanguinalis); experiment: as above
Summary of the method: as §1

[4] = tested on: foxtail, giant (giant foxtail, Setaria faberii); experiment: as above
Summary of the method: as §1

[5] = tested on: johnsongrass (Sorghum halepense); experiment: as above
Summary of the method: as §1

[6] = tested on: lambsquarters (Chenopodium album); experiment: as above
Summary of the method: as §1

[7] = tested on: morningglory (Ipomoea coccinea); experiment: as above
Summary of the method: as §1

[8] = tested on: nutsedge, yellow (yellow nutsedge, Cyperus esculentus); experiment: as above
Summary of the method: as §1

[9] = tested on: oilseed rape (Brassica napus); experiment: as above
Summary of the method: as §1

[10] = tested on: pigweed (Amaranthus retroflexus); experiment: as above
Summary of the method: as §1

[11] = tested on: velvetleaf (Abutilon theophrasti); experiment: as above
Summary of the method: as §1

[12] = tested on: waterhemp (common waterhemp, Amaranthus rudis); experiment: as above
Summary of the method: as §1

[13] = tested on: wheat (winter wheat, Triticum aestivum); experiment: as above
Summary of the method: as §1

kochia (Kochia scoparia) = experiment: Test C greenhouse herbicide test, postemergence; conditions: for Plant response rating, Kochia: Postemergence
Summary of the method: (§2)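 Steps: pot plants in peat-based medium; spray postemergence at 1- to 4-leaf stage; hold in greenhouse 13 to 15 d; score visually against controls from 0 (no effect) to 100 (complete control).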

[14] = tested on: oat, wild (wild oat, Avena fatua); experiment: Test C greenhouse herbicide test, postemergence; conditions: for Plant response rating, Oat, Wild: Postemergence
Summary of the method: as §2

[15] = Postemergence, 31 g ai/ha, 0 to 100 scale (0 no effect, 100 complete control)
[16] = Postemergence, 125 g ai/ha, scale 0 to 100, 0 is no effect, 100 is complete control
[17] = Postemergence, 250 g ai/ha, scale 0 to 100, 0 no effect, 100 complete control, 13 to 15 d
[18] = Preemergence, 31 g ai/ha, scale 0 to 100, 0 is no effect, 100 is complete control
[19] = Preemergence, 62 g ai/ha, scale 0 to 100, 0 is no effect, 100 is complete control
[20] = Preemergence, 125 g ai/ha, scale 0 to 100, 0 is no effect, 100 is complete control
[21] = Preemergence, 250 g ai/ha, scale 0 to 100 (0 no effect, 100 complete control)
[22] = postemergence, 62 g ai/ha, scale 0 to 100, 0 no effect, 100 complete control
[23] = 125 g ai/ha, scale 0 to 100, 0 is no effect, 100 is complete control
[24] = 250 g ai/ha, scale 0 to 100, 0 no effect, 100 complete control, 13 to 15 d

CCOC(=O)Oc1c(C)nn(C)c(=O)c1-c1c(C)sc2ccc(C)cc12 [Compound 82]
75: Plant response rating, Oilseed Rape [9, 17]
0: Plant response rating, Corn (corn (Zea mays); [18]) | Plant response rating, Corn (corn (Zea mays); [19]) | Plant response rating, Oilseed Rape [9, 18] | Plant response rating, Oilseed Rape [9, 19] | Plant response rating, Oilseed Rape [9, 20] | Plant response rating, Wheat [13, 18] | Plant response rating, Wheat [13, 19] | Plant response rating, Wheat [13, 20] | Wheat plant response rating [13, 21] | Wheat plant response rating [13, 22]
98: Plant response rating, Lambsquarters [6, 16] | Plant response rating, Lambsquarters [6, 20] | Lambsquarters plant response rating [6, 21] | Lambsquarters plant response rating [6, 22] | Plant response rating, Waterhemp [12, 17] | Waterhemp plant response rating [12, 22]
20: Barnyardgrass plant response rating [1, 15] | Plant response rating, Corn (corn (Zea mays); [20]) | Plant response rating, Crabgrass, Large [3, 16] | Plant response rating, Crabgrass, Large [3, 19] | Crabgrass, Large plant response rating [3, 22]
80: Blackgrass plant response rating [2, 21] | Crabgrass, Large plant response rating [3, 21] | Plant response rating, Foxtail, Giant [4, 17] | Nutsedge, Yellow plant response rating [8, 22] | Plant response rating, Velvetleaf [11, 19] | Velvetleaf plant response rating [11, 22]
65: Plant response rating, Blackgrass [2, 20] | Plant response rating, Johnsongrass [5, 19] | Plant response rating, Velvetleaf [11, 18]
85: Plant response rating, Foxtail, Giant [4, 19] | Plant response rating, Lambsquarters [6, 18] | Plant response rating, Morningglory [7, 18] | Plant response rating, Nutsedge, Yellow [8, 16] | Plant response rating, Nutsedge, Yellow [8, 17] | Oilseed Rape plant response rating [9, 21] | Plant response rating, Velvetleaf [11, 20] | Oat, Wild plant response rating [14, 22]
30: Plant response rating, Barnyardgrass [1, 17] | Corn plant response rating (corn (Zea mays); [22]) | Plant response rating, Crabgrass, Large [3, 17]
35: Plant response rating, Blackgrass [2, 16] | Blackgrass plant response rating [2, 22] | Corn plant response rating (corn (Zea mays); [15]) | Plant response rating, Nutsedge, Yellow [8, 18]
50: Plant response rating, Blackgrass [2, 18] | Plant response rating, Oilseed Rape [9, 16]
60: Plant response rating, Blackgrass [2, 19] | Plant response rating, Foxtail, Giant [4, 16] | Plant response rating, Foxtail, Giant [4, 18] | Plant response rating, Johnsongrass [5, 20] | Plant response rating, Nutsedge, Yellow [8, 19] | Plant response rating, Nutsedge, Yellow [8, 20]
70: Plant response rating, Barnyardgrass [1, 20] | Plant response rating, Crabgrass, Large [3, 20]
100: Foxtail, Giant plant response rating [4, 21] | Plant response rating, Lambsquarters [6, 17] | Plant response rating, Morningglory [7, 16] | Plant response rating, Morningglory [7, 17] | Morningglory plant response rating [7, 22] | Plant response rating, Pigweed [10, 19] | Plant response rating, Pigweed [10, 20] | Pigweed plant response rating [10, 21] | Plant response rating, Waterhemp [12, 18] | Plant response rating, Waterhemp [12, 19] | Plant response rating, Waterhemp [12, 20] | Waterhemp plant response rating [12, 21]
90: Barnyardgrass plant response rating [1, 21] | Plant response rating, Foxtail, Giant [4, 20] | Plant response rating, Lambsquarters [6, 19] | Plant response rating, Morningglory [7, 19] | Nutsedge, Yellow plant response rating [8, 21] | Plant response rating, Pigweed [10, 16] | Plant response rating, Pigweed [10, 17] | Pigweed plant response rating [10, 22] | Plant response rating, Velvetleaf [11, 17] | Velvetleaf plant response rating [11, 21] | Plant response rating, Waterhemp [12, 16] | Plant response rating, Kochia (kochia (Kochia scoparia); [23]) | Plant response rating, Kochia (kochia (Kochia scoparia); [24]) | Kochia plant response rating (kochia (Kochia scoparia); [22]) | Plant response rating, Oat, Wild [14, 23] | Plant response rating, Oat, Wild [14, 24]
40: Plant response rating, Blackgrass [2, 17] | Johnsongrass plant response rating [5, 21] | Oilseed Rape plant response rating [9, 22]
95: Plant response rating, Morningglory [7, 20] | Morningglory plant response rating [7, 21] | Plant response rating, Pigweed [10, 18] | Plant response rating, Velvetleaf [11, 16]
10: Plant response rating, Barnyardgrass [1, 18] | Blackgrass plant response rating [2, 15] | Plant response rating, Corn (corn (Zea mays); [16]) | Plant response rating, Johnsongrass [5, 16] | Plant response rating, Johnsongrass [5, 17]
45: Plant response rating, Johnsongrass [5, 18]
5: Plant response rating, Corn (corn (Zea mays); [17]) | Johnsongrass plant response rating [5, 22] | Plant response rating, Wheat [13, 16] | Plant response rating, Wheat [13, 17]
25: Plant response rating, Barnyardgrass [1, 16] | Barnyardgrass plant response rating [1, 22] | Corn plant response rating (corn (Zea mays); [21]) | Plant response rating, Crabgrass, Large [3, 18] | Foxtail, Giant plant response rating [4, 22]
55: Plant response rating, Barnyardgrass [1, 19]

Source: US10597388B2, “Pyridazinone herbicides” (FMC CORPORATION, priority 2014, dated 2020)
